In US20060029654A1, “Analgesic patch for sports injury rehabilitation medicine and method to alleviate pain” (priority 2004, published 2006):

System: pain in the right shoulder and right lateral thigh (right rotator cuff tendonitis and right lateral fasciaitis)
Details: prior treatment history; injection into the pain trigger zone

C[C@]12CCC(=O)C=C1CC[C@@H]1[C@@H]2C(=O)C[C@@]2(C)[C@H]1CC[C@]2(O)C(=O)CO [cortisone]
duration of temporary pain relief: 4 to 6 weeks
